Data taken from US20260315452A1, “PROTEASE INHIBITORS AND USES THEREOF” (priority 2023, published 2026).

Biological target: SARS-CoV-2 3CLpro (Severe acute respiratory syndrome coronavirus 2, UniProt P0DTD1)
Test: biochemical
Conditions: inhibition of SARS-CoV-2 3CLpro; 15 nM 3CLpro, 25 μM fluorogenic substrate, 37° C.; read-out: Inhibitory Activity (IC50)

## NNC(=O)c1cc(Br)cc([N+](=O)[O-])c1N[C@@H]1CCCC[C@@H]1NC(=O)c1cncc2ccccc12 [Compound 54, N-((1S,2R)-2-((4-bromo-2-(hydrazinecarbonyl)-6-nitrophenyl)amino)cyclohexyl)isoquinoline-4-carboxamide]
  IC50: 1000 to 10000 nM

## CNC(=O)c1cc(Br)cc([N+](=O)[O-])c1NC(C1CC1)C1CN(C(=O)c2cncc3ccccc23)C1 (centres unmarked) [Compound 58, 5-bromo-2-((cyclopropyl(1-(isoquinoline-4-carbonyl)azetidin-3-yl)methyl)amino)-N-methyl-3-nitrobenzamide]
  IC50: 100 to 1000 nM

## CNC(=O)c1cc(Br)cc([N+](=O)[O-])c1N[C@@H]1CCCC[C@@H]1NC(=O)c1cncc(CNC(=O)OC(C)(C)C)c1 [Compound 5, tert-butyl ((5-(((1S, 2R)-2-((4-bromo-2-(methylcarbamoyl)-6-nitrophenyl)amino)cyclohexyl)carbamoyl)pyridin-3-yl)methyl)carbamate]
  IC50: ≥ 10000 nM

## CNC(=O)c1cc(Br)cc([N+](=O)[O-])c1NC(C(C)C)C1CN(C(=O)c2cncc3ccccc23)C1 (stereo in doubt) [Compound 15, (R)-5-bromo-2-((1-(1-(isoquinoline-4-carbonyl)azetidin-3-yl)-2-methylpropyl)amino)-N-methyl-3-nitrobenzamide]
  IC50: ≥ 10000 nM

## CNC(=O)c1cc(Br)cc([N+](=O)[O-])c1N[C@H]1CN(C(=O)c2cncc3cccnc23)CCC1(F)F [Compound 107, (S)-5-bromo-2-((4,4-difluoro-1-(1,6-naphthyridine-8-carbonyl)piperidin-3-yl)amino)-N-methyl-3-nitrobenzamide]
  IC50: < 100 nM

## CNC(=O)c1cc(Br)cc(C(F)(F)F)c1N[C@H]1CN(C(=O)c2cncc3cccnc23)CCC1(F)F [Compound 167, (S)-5-bromo-2-((4,4-difluoro-1-(1,6-naphthyridine-8-carbonyl)piperidin-3-yl)amino)-N-methyl-3-(trifluoromethyl)benzamide]
  IC50: < 100 nM

## CNC(=O)c1cc(Br)cc([N+](=O)[O-])c1NC(C(C)C)C1CN(C(=O)c2cncc(C(F)(F)F)c2)C1 (centres unmarked) [Compound 73, 5-bromo-N-methyl-2-((2-methyl-1-(1-(5-(trifluoromethyl)nicotinoyl)azetidin-3-yl)propyl)amino)-3-nitrobenzamide]
  IC50: 1000 to 10000 nM

## CNC(=O)c1cc(Br)cc([N+](=O)[O-])c1N1CCc2[nH]nc(-c3cncc4ccccc34)c2C1 [Compound 69, 5-bromo-2-(3-(isoquinolin-4-yl)-1,4,6,7-tetrahydro-5H-pyrazolo[4,3-c]pyridin-5-yl)-N-methyl-3-nitrobenzamide]
  IC50: 1000 to 10000 nM

## CNC(=O)c1cc(Br)cc([N+](=O)[O-])c1N[C@H]1CN(C(=O)c2cncc(-n3cccn3)c2)CCC1(F)F [Compound 39, (S)-2-((1-(5-(1H-pyrazol-1-yl)nicotinoyl)-4,4-difluoropiperidin-3-yl)amino)-5-bromo-N-methyl-3-nitrobenzamide]
  IC50: 100 to 1000 nM

## CN(C)C(=O)c1cc(Cl)cc([N+](=O)[O-])c1N[C@H]1CN(C(=O)c2cncc3ccccc23)CC[C@@H]1F [Compound 177]
  IC50: < 100 nM

## CNC(=O)c1cc(Br)cc([N+](=O)[O-])c1O[C@H]1CN(C(=O)c2cncc3ccccc23)CCC1(F)F [Compound 180, (S)-5-bromo-2-((4,4-difluoro-1-(isoquinoline-4-carbonyl)piperidin-3-yl)oxy)-N-methyl-3-nitrobenzamide]
  IC50: ≥ 10000 nM

## CNC(=O)c1cc(Cl)cc([N+](=O)[O-])c1N[C@H]1CN(C(=O)c2cncc(Cl)c2C)CCC1(F)F [Compound 169, (S)-5-chloro-2-((1-(5-chloro-4-methylnicotinoyl)-4,4-difluoropiperidin-3-yl)amino)-N-methyl-3-nitrobenzamide]
  IC50: < 100 nM

## CC(C)C(Nc1c(-c2nnc[nH]2)cc(Br)cc1[N+](=O)[O-])C1CN(C(=O)c2cncc3ccccc23)C1 (centres unmarked) [Compound 17, (3-(1-((4-bromo-2-nitro-6-(4H-1,2,4-triazol-3-yl)phenyl)amino)-2-methylpropyl)azetidin-1-yl)(isoquinolin-4-yl)methanone]
  IC50: 100 to 1000 nM

## CNC(=O)c1cc(Br)cc([N+](=O)[O-])c1N[C@@H]1CCCCN(C(=O)c2cnc3ccccc3c2)C1 [Compound 20, (R)-5-bromo-N-methyl-3-nitro-2-((1-(quinoline-3-carbonyl)azepan-3-yl)amino)benzamide]
  IC50: 100 to 1000 nM

## CNC(=O)c1cc(Br)cc([N+](=O)[O-])c1N[C@H]1CN(C(=O)c2cncc3ccccc23)C[C@H]1F [Compound 166, 5-bromo-2-[[(3S,4R)-4-fluoro-1-(isoquinoline-4-carbonyl)pyrrolidin-3-yl]amino]-N-methyl-3-nitro-benzamide]
  IC50: < 100 nM

## CNC(=O)c1cc(Br)cc([N+](=O)[O-])c1N[C@H]1CN(C(=O)c2cnc3ccccn23)CCC1(F)F [Compound 101, (S)-5-bromo-2-((4,4-difluoro-1-(imidazo[1,2-a]pyridine-3-carbonyl)piperidin-3-yl)amino)-N-methyl-3-nitrobenzamide]
  IC50: < 100 nM

## COC(=O)c1cc(Br)cc([N+](=O)[O-])c1N[C@@H]1CCCC[C@@H]1NC(=O)c1cncc2ccccc12 [Compound 51, methyl 5-bromo-2-(((1R, 2S)-2-(isoquinoline-4-carboxamido)cyclohexyl)amino)-3-nitrobenzoate]
  IC50: 100 to 1000 nM

## O=C(NCC(F)(F)F)c1cc(Br)cc([N+](=O)[O-])c1N[C@H]1CN(C(=O)c2cncc3ccccc23)CCC1(F)F [Compound 148, (S)-5-bromo-2-((4,4-difluoro-1-(isoquinoline-4-carbonyl)piperidin-3-yl)amino)-3-nitro-N-(2,2,2-trifluoroethyl) benzamide]
  IC50: < 100 nM

## CNC(=O)c1cc(Br)cc([N+](=O)[O-])c1N1CCC2(CCN(C(=O)c3cncnc3)C2)C1 (centres unmarked) [Compound 21]
  IC50: ≥ 10000 nM

## COc1cncc(C(=O)N2CCC3(CCN(c4c(C(=O)NC5CC(F)(F)C5)cc(Br)cc4[N+](=O)[O-])C3)C2)c1 (centres unmarked) [Compound 23, 5-bromo-N-(3,3-difluorocyclobutyl)-2-(7-(5-methoxynicotinoyl)-2,7-diazaspiro[4.4]nonan-2-yl)-3-nitrobenzamide]
  IC50: 1000 to 10000 nM

## CNC(=O)c1cc(Br)cc(S(C)(=O)=O)c1N[C@@H]1CCCC[C@@H]1NC(=O)c1cncc2ccccc12 [Compound 57, N-((1S,2R)-2-((4-bromo-2-(methylcarbamoyl)-6-(methylsulfonyl)phenyl)amino)cyclohexyl) isoquinoline-4-carboxamide]
  IC50: ≥ 10000 nM

## O=C(N[C@H]1CCOC1)c1cc(Br)cc(C(F)(F)F)c1N[C@H]1CN(C(=O)c2cncc3ccccc23)CCC1(F)F [Compound 164, 5-bromo-2-(((S)-4,4-difluoro-1-(isoquinoline-4-carbonyl)piperidin-3-yl)amino)-N-((S)-tetrahydrofuran-3-yl)-3-(trifluoromethyl)benzamide]
  IC50: < 100 nM

## CNC(=O)c1cc(Cl)cc([N+](=O)[O-])c1NC(C(C)C)C1CN(C(=O)c2cncc3ccccc23)C1 (centres unmarked) [Compound 130, 5-chloro-2-((1-(1-(isoquinoline-4-carbonyl)azetidin-3-yl)-2-methylpropyl)amino)-N-methyl-3-nitrobenzamide acid]
  IC50: 100 to 1000 nM
